What was measured:
[1] = in words; cited from earlier work
skin = details: Cornwell and Barry 1993; cited from earlier work
[2] = cited from earlier work
porcine dermatomed skin = test: Skin penetration of rhodamine 123 (fluorescence and confocal microscopy); format: in vitro ADME; details: 10 μg rhodamine 123 equivalent, 6 hours, cryosections
Method: For stratum corneum (SC) 0-20 μm and for epidermis 20-100 μm XZ optical sections from confocal microscopic images were used for quantifying the fluorescence pixels. The nanoparticles were prepared using the method described in Table 8-1.
Later the skin was sectioned with cryotome and observed under a fluorescent microscope.

penetration into skin (porcine dermatomed skin) | SMILES | solubility in water [1] | skin permeability (skin) | Log P [2]
– | O=c1[nH]cc(F)c(=O)[nH]1 [5-Fluorouracil (5-FU), 5-Fluorouracil] | partially soluble in cold water | poorly permeable through skin | –
restricted to the top layer of skin (SC) | COC(=O)c1ccccc1-c1c2ccc(=N)cc-2oc2cc(N)ccc12.Cl [Rhodamine 123] | – | – | 1.2
